Laboratory results from ChEMBL document CHEMBL1135006, “Synthesis and biological evaluation of novel 2-(1H-imidazol-4-yl)cyclopropane carboxylic acids: key intermediates for H3 histamine receptor ligands” (Bioorg Med Chem Lett, 2002).

target: Histamine H3 receptor (Rattus norvegicus) (UniProt Q9QYN8); assay: Inhibition of the specific binding of [3H](R)-alpha-methylhistamine ([3H]RMHA) to Histamine H3 receptor in rat brain membranes at 10e-8 M
Sequence (Q9QYN8 whole entry, looked up): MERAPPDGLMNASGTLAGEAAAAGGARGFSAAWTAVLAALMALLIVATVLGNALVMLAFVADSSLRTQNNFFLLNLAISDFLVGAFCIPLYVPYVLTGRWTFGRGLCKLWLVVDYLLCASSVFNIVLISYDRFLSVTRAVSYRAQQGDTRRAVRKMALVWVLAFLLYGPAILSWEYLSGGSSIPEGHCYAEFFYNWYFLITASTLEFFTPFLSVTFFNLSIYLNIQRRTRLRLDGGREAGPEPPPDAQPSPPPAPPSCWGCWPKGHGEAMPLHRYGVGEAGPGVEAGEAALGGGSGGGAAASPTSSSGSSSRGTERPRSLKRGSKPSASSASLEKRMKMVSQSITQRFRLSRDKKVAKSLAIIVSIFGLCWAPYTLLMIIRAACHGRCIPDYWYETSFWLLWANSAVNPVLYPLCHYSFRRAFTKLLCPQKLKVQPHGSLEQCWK

inhibition | Compound
4.3% | OC/C=C\c1ccccc1
33.5% | OC/C=C/c1ccccc1

Further lines, the molecule ahead of its results:

Compound | inhibition
O=C(O)C1C[C@@H]1c1c[nH]cn1 (single isomer, unassigned) | 11.6%
C/C=C\CO | 3.7%
C/C=C/CO | 10%
